Source: patent US20210330611A1, “THERAPY FOR NEUROLOGICAL DISEASES/DISORDERS” (priority 2020, published 2021)
Where “and” joins values, the source holds several entries; their conditions need not be identical. Identical values can stand only once. Counter-ions that a name gives are not always drawn. Like-named read-outs stand apart in the source and are kept apart here.

Key:
[1] = test system: fibrin-induced microglia activation; experiment: Image-based assay of fibrin-induced microglia activation (HTS and dose response); type: cell-based, rat; settings: for inhibition at 10 µM: Rattus norvegicus, Microglia, read-out: Fibrin % inhibition
[2] = test system: primary rat microglia;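 as to Fibrin % cell toxicity: share of dead cells sized under 150 µm2 at 10 µM in fibrin-stimulated microglia HTS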
[3] = test system: LPS-induced microglia activation; experiment: Image-based assay of LPS-induced microglia activation (HTS and dose response); type: cell-based, rat; settings: for inhibition at 10 µM: Rattus norvegicus, Microglia, read-out: LPS % inhibition
[4] = test system: fibrin- and LPS-induced microglia activation; experiment: cells; type: cell-based, rat; settings: for inhibition at 10 µM: Rattus norvegicus, Microglia
[5] = test system: primary rat microglia; remark: listed apart in the source;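 as to Fibrin % cell toxicity: share of dead cells sized under 150 µm2 at 10 µM in fibrin-stimulated microglia HTS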
[6] = primary microglia HTS, fibrin stimulation, compounds at 10 μM
[7] = primary microglia HTS, LPS stimulation, compounds at 10 μM
[8] = quadrant by fibrin and LPS inhibition, HTS at 10 μM
[9] = quadrant by fibrin and LPS inhibition in HTS of 1907 compounds
[10] = primary microglia HTS, fibrin stimulation, increased cell size (>800 μm^2) as marker of activation
[11] = 48 h, primary microglia HTS, LPS stimulation, increased cell size (>800 μm^2) as marker of activation

Compound | Quadrant (FIG. 5b) [4] | Fibrin % cell toxicity ([2]; rat) [%] | LPS % cell toxicity ([5]; rat) [%] | also measured
O=CCc1ccc(-c2ccccc2)cc1 | Q4 | – | – | Fibrin % inhibition ([1]; 10 µM): −26%; Fibrin % cell toxicity [2]: 0%; LPS % inhibition ([3]; 10 µM): 7%; LPS % cell toxicity [5]: 0%
CN(C)CCCN1c2ccccc2Sc2ccc(Cl)cc21.Cl | Q4 | – | – | Fibrin % inhibition ([1]; 10 µM): 9%; Fibrin % cell toxicity [2]: 2%; LPS % inhibition ([3]; 10 µM): 25%; LPS % cell toxicity [5]: 1%
C#CCN(C)CCCOc1ccc(Cl)cc1Cl.Cl | Q4 | – | – | Fibrin % inhibition ([1]; 10 µM): −28%; Fibrin % cell toxicity [2]: 0%; LPS % inhibition ([3]; 10 µM): 6%; LPS % cell toxicity [5]: 0%
O=P1(N(CCCl)CCCl)NCCCO1 (centres unmarked) | Q4 | – | – | Fibrin % inhibition ([1]; 10 µM): −15%; Fibrin % cell toxicity [2]: 0%; LPS % inhibition ([3]; 10 µM): 12%; LPS % cell toxicity [5]: 0%
N[C@@H]1C[C@H]1c1ccccc1 (racemic) [Tranylcypromine] | Q4 | – | – | Fibrin % inhibition ([1]; 10 µM): 5%; Fibrin % cell toxicity [2]: 1%; LPS % inhibition ([3]; 10 µM): −5%; LPS % cell toxicity [5]: 0%
OCCc1ccccc1 [2-Phenyl-Ethanol] | – | 1 | 0 | inhibition at 10 µM [1, 6]: -6%; inhibition at 10 µM [3, 7]: 15%; Quadrant (FIG. 5b) [4, 8]: Q4
O=c1ccc2ccccc2o1 [2H-1-BENZOPYRAN-2-ONE] | Q4 | – | – | Fibrin % inhibition ([1]; 10 µM): −35%; Fibrin % cell toxicity [2]: 0%; LPS % inhibition ([3]; 10 µM): 13%; LPS % cell toxicity [5]: 0%
Nc1ncn([C@@H]2O[C@H](CO)[C@@H](O)[C@H]2O)c(=O)n1 [5-azacytidine, Azacitidine] | – | – | – | Fibrin % inhibition [1, 6]: 9%; Fibrin % cell toxicity [2]: 1%; LPS % inhibition [3, 7]: −7%; Quadrant (FIG. 5b) [4, 8]: Q4; LPS % cell toxicity [5]: 0%
C[C@H]1O[C@@H](n2cc(F)c(=O)[nH]c2=O)[C@H](O)[C@@H]1O [5-fluoro-5′-deoxyuridine, Doxifluridine] | – | – | – | Fibrin % inhibition [1, 6]: −27%; Fibrin % cell toxicity [2]: 1%; LPS % inhibition [3, 7]: 9%; Quadrant (FIG. 5b) [4, 8]: Q4; LPS % cell toxicity [5]: 0%
Cc1cc(=O)oc2cc(O)ccc12 [7-hydroxy-4-methyl-2H-chromen-2-one] | – | 0 | 0 | inhibition at 10 µM [1, 6]: 12%; inhibition at 10 µM [3, 7]: 4%; Quadrant (FIG. 5b) [4, 8]: Q4
CCCC(=O)Nc1ccc(OCC(O)CNC(C)C)c(C(C)=O)c1 (centres unmarked) [Acebutolol] | – | 1 | 0 | inhibition at 10 µM [1, 6]: -11%; inhibition at 10 µM [3, 7]: 19%; Quadrant (FIG. 5b) [4, 8]: Q4
CC(=O)Nc1ccc(S(=O)(=O)c2ccc(NC(C)=O)cc2)cc1 [Acedapsone] | Q4 | 0 | 0 | inhibition at 10 µM [1]: 0%; inhibition at 10 µM [3]: 4%
CC1=CC(=O)NS(=O)(=O)O1 [Acesulfame Potassium] | Q4 | 0 | 0 | inhibition at 10 µM [1]: -3%; inhibition at 10 µM [3]: 16%
CC(=O)Nc1ccc(O)cc1 [Acetaminophen] | – | 0 | 0 | inhibition at 10 µM [1]: 14%; inhibition at 10 µM [3]: 22%
CC(=O)Nc1ccccc1 [Acetanilide] | Q4 | 0 | 0 | inhibition at 10 µM [1]: -31%; inhibition at 10 µM [3]: 9%
CC(=O)Nc1nnc(S(N)(=O)=O)s1 [Acetazolamide] | Q4 | 0 | 1 | inhibition at 10 µM [1]: -12%; inhibition at 10 µM [3]: 4%
CC(=O)c1ccc(S(=O)(=O)NC(=O)NC2CCCCC2)cc1 [Acetohexamide] | – | 1 | 0 | inhibition at 10 µM [1, 6]: 12%; inhibition at 10 µM [3, 7]: 14%; Quadrant (FIG. 5b) [4, 8]: Q4
C=C1CC[C@H](O)C/C1=C/C=C1\CCC[C@]2(C)[C@@H]([C@H](C)CCCC(C)C)CC[C@@H]12 [Cholecalciferol] | – | 1 | 0 | Fibrin % inhibition ([1]; primary HTS, 10 μM, fibrin-stimulated primary microglia): −10% and −17%; Quadrant (FIG. 5b) ([4]; primary HTS, 10 μM): Q4
C[C@@H]1C[C@H]2[C@@H]3CCC4=CC(=O)C=C[C@]4(C)[C@@]3(F)[C@@H](O)C[C@]2(C)[C@@]1(O)C(=O)COP(=O)(O)O [Dexamethasone sodium phosphate, reference compound] | Q2 | 2 | 3 | inhibition at 10 µM ([4]; read-out: Cherry-picked Hit (Suppl. Table 7)): > 50%; inhibition at 10 µM ([4]; read-out: Hit): > 50%
CCN(CC)CCOC(=O)C1(C2CCCCC2)CCCCC1 [Dicyclomine] | Q4 | 0 | 0 | –
CN(C)CCC=C1c2ccccc2COc2ccccc21 [Doxepin] | Q4 | 1 | 0 | LPS % inhibition ([3]; 10 µM): 13%; inhibition at 10 µM [3]: 16%

Compound | Quadrant (FIG. 5b) [4] | Fibrin % cell toxicity ([2]; rat) [%] | LPS % cell toxicity ([5]; rat) [%] | also measured
CCOc1cc(NC(C)=O)ccc1C(=O)OC [Ethopabate] | Q4 | 0 | 0 | –
CC(C)OC(=O)C(C)(C)Oc1ccc(C(=O)c2ccc(Cl)cc2)cc1 [Fenofibrate] | – | 1 | 0 | Quadrant (FIG. 5b) ([4]; classification by fibrin and LPS inhibition, HTS at 10 μM): Q4
O=c1[nH]c(=O)n([C@H]2C[C@H](O)[C@@H](CO)O2)cc1F [Floxuridine] | – | 1 | 0 | Quadrant (FIG. 5b) [4, 9]: Q4
CN1C2CCCC1CC(NC(=O)c1nn(C)c3ccccc13)C2 (centres unmarked) [Granisetron Hydrochloride] | – | 0 | 0 | Quadrant (FIG. 5b) [4, 9]: Q4
CN1C2CCCC1CC(NC(=O)c1nn(C)c3ccccc13)C2 (centres unmarked) [Granisetron] | – | 1 | 0 | Quadrant (FIG. 5b) [4, 9]: Q4
CN(C)CCCN1c2ccccc2CCc2ccccc21 [Imipramine] | – | 0 | 1 | inhibition at 10 µM [1, 10]: -4%; inhibition at 10 µM [3, 11]: 60%
CC(C)Cn1cnc2c(N)nc3ccccc3c21 [Imiquimod] | Q4 | 0 | 0 | –
CS(=O)(=O)CCNCc1ccc(-c2ccc3ncnc(Nc4ccc(OCc5cccc(F)c5)c(Cl)c4)c3c2)o1 [Lapatinib] | – | 1 | 0 | Quadrant (FIG. 5b) [4, 9]: Q4
N[C@@H](Cc1cc(I)c(Oc2ccc(O)c(I)c2)c(I)c1)C(=O)O [Liothyronine] | Q4 | 1 | 1 | inhibition at 10 µM ([3]; 48 h): 21%
CN(C)CCN(Cc1cccs1)c1ccccn1 [Methapyrilene] | Q4 | 1 | 0 | –
CC1(C)NC(=O)N(c2ccc([N+](=O)[O-])c(C(F)(F)F)c2)C1=O [Nilutamide] | – | 1 | 0 | Quadrant (FIG. 5b) [4, 9]: Q4
Cc1ccccc1C(OCCN(C)C)c1ccccc1 (centres unmarked) [Orphenadrine] | Q4 | 0 | 0 | –
C[C@@H]1O[C@@H](O[C@H]2C[C@@H](O)[C@]3(CO)[C@H]4[C@H](O)C[C@]5(C)[C@@H](C6=CC(=O)OC6)CC[C@]5(O)[C@@H]4CC[C@]3(O)C2)[C@H](O)[C@H](O)[C@H]1O [Ouabain] | – | 0 | 0 | Quadrant (FIG. 5b) [4, 9]: Q4
Clc1ccc(CO/N=C(\Cn2ccnc2)c2ccc(Cl)cc2Cl)c(Cl)c1 [Oxiconazole] | Q4 | 1 | 1 | –
COc1cc2nc(N3CCN(C(=O)c4ccco4)CC3)nc(N)c2cc1OC [Prazosin] | – | 3 | 77 | inhibition at 10 µM [1, 10]: 43%; inhibition at 10 µM [3, 11]: 118%
CN[C@H]1CC[C@@H](c2ccc(Cl)c(Cl)c2)c2ccccc21 [Sertraline] | Q4 | 1 | 0 | –
Clc1ccc(CSC(Cn2ccnc2)c2ccc(Cl)cc2Cl)cc1 (centres unmarked) [Sulconazole] | Q4 | 1 | 1 | –
Clc1ccccc1CN1CCc2sccc2C1 [Ticlopidine] | – | 1 | 0 | inhibition at 10 µM [1]: -13%; inhibition at 10 µM [3]: 22%
O=C(CCCCCCC(=O)Nc1ccccc1)NO [Vorinostat] | – | 89 | 50 | Quadrant (FIG. 5b) [4, 8]: Q2
Betamethasone sodium phosphate [reference compound] | Q2 | – | – | Fibrin % cell toxicity [2]: 2%; Cherry-picked Hit (Suppl. Table 7) [4]: HIT (key: HIT: Hits were defined as molecules that exhibited greater than 50% inhibition of either fibrin or LPS activation); Hit [4]: HIT (key: HIT: Hits were defined as molecules that exhibited greater than 50% inhibition of either fibrin or LPS activation); LPS % cell toxicity [5]: 3%
Cinnarazine | Q4 | – | – | Fibrin % cell toxicity [2]: 1%; LPS % cell toxicity [5]: 0%
